Structures are written as SMILES.

The experiment has as its target T1, soluble epoxide hydrolase (sEH) (Homo sapiens, UniProt P34913).
T1 construct: gene EPHX2
T1 sequence (P34913 1-555): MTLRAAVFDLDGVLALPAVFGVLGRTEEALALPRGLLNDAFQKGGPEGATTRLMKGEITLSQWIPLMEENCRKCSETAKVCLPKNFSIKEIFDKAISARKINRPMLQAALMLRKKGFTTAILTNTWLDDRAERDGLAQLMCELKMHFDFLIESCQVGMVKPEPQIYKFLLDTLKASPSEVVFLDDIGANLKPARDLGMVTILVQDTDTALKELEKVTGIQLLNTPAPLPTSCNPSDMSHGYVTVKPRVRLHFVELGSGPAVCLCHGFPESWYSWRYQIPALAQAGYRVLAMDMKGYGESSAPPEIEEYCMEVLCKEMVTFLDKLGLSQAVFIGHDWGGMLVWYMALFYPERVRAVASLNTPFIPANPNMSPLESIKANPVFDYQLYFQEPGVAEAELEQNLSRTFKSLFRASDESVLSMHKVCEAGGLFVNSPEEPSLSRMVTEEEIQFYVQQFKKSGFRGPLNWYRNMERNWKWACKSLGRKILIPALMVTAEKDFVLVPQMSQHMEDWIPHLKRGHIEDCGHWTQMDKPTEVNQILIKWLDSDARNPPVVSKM
The experiment in a line: fluorescence assay with recombinant human sEH and PHOME substrate. It is filed as biochemical.

`C=CCc1cc(OC)c(O[C@@H]2O[C@H](CO)[C@@H](O)[C@H](O)[C@H]2O)c(OC)c1` [compound 5, erigeside II]: the IC50 came out at 58.5 ± 0.5 µM.

Source of the values: publication PMC6384562, “Isolation of Two New Compounds and Other Constituents from Leaves of Piper crocatum and Study of Their Soluble Epoxide Hydrolase Activities” (Molecules, 2019).
